{"source": "paper doi:10.1101/2025.03.24.644576v1", "about": "(biorxiv, 2025)", "key": {"[1]": {"target": "T1, AmRDL receptor (Apis mellifera, UniProt A0A8U0Y4W2, F191A)", "T1 sequence (A0A8U0Y4W2 19-476 F191A)": "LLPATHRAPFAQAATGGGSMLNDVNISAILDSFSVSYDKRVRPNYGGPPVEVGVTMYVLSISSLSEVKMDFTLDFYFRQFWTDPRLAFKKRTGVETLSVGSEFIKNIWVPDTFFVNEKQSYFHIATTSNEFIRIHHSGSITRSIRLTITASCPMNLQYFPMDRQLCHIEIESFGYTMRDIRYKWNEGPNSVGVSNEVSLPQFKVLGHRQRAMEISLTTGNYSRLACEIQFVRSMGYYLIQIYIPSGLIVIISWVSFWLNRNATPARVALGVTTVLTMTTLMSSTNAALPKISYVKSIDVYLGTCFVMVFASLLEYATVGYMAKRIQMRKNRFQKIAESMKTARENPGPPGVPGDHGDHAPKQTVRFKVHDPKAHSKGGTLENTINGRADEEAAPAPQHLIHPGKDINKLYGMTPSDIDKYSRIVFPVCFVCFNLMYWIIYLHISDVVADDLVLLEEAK", "assay": "two-electrode voltage clamp, Xenopus oocytes", "type": "cell-based"}, "[2]": {"target": "T2, AmRDL receptor (Apis mellifera, UniProt A0A8U0Y4W2)", "T2 sequence (A0A8U0Y4W2 19-476)": "T1 sequence (A0A8U0Y4W2 19-476 F191A)", "assay": "two-electrode voltage clamp, Xenopus oocytes", "type": "cell-based"}}, "data": [{"smiles": "NCCCC(=O)O", "note": "[GABA]", "values": [{"measurement": "EC50", "setting": "[1]", "result": 1000, "unit": "µM"}, {"measurement": "EC50", "setting": "[2]", "result": 10, "unit": "µM"}]}]}
